Here are results for 29 compounds from US12060347B2 (BRISTOL-MYERS SQUIBB COMPANY, priority 2016, dated 2024).

For this test, the target named is T1, human PAR4 (Homo sapiens, UniProt Q96RI0).
T1 construct: expressed in transfected cells; host or cells: HEK293 PAR4 Clone 1.2A (BMS Arctic ID 383940)
T1 sequence (Q96RI0 18-385): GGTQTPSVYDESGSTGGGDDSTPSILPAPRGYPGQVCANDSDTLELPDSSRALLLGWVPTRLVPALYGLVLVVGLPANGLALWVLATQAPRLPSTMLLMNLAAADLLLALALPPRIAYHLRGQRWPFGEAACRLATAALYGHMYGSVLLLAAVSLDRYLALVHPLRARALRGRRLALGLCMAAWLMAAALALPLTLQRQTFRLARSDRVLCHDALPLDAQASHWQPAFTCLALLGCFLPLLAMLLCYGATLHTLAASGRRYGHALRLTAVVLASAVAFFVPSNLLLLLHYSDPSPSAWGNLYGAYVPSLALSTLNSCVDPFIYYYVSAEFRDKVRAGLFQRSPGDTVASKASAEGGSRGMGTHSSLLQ
In words: PAR4 FLIPR assay: antagonism of agonist-peptide-induced calcium mobilization in PAR4-expressing HEK293 cells. The settings on record: H-Ala-Phe(4-F)-[…]NH2-induced intracellular calcium mobilization, 11-point curves. Format: cell-based. For orientation: Calcium flux is commonly read through the fluorescence of an indicator in the cells.

For orientation: IC50 means the concentration at which inhibition is half-maximal.

In the case of `COc1cnc2c(-c3nc4cc(F)c(O[C@@H](C)[C@@H](C)OC(=O)Nc5cnc(C)nc5)cc4s3)cc(C#N)cc2n1` [Example 825, (2R,3S)-3-((2-(7-cyano-2-methoxyquinoxalin-5-yl)-5-fluorobenzo[d]thiazol-6-yl)oxy)butan-2-yl (2-methylpyrimidin-5-yl)carbamate], the IC50 was 8 nM.
As to `COc1cnc2c(-c3nc4c(Cl)c(F)c(OC)cc4s3)cc(C)cc2n1` [Example 282, 4-chloro-5-fluoro-6-methoxy-2-(2-methoxy-7-methylquinoxalin-5-yl)benzo[d]thiazole], the IC50 is 1.1 nM.
For the compound `COc1cnc2c(-c3nc4c(C)cc(OCCNS(=O)(=O)c5ccc(F)cc5)nc4s3)cc(C)cc2n1` [Example 194, 4-fluoro-N-(2-((2-(2-methoxy-7-methylquinoxalin-5-yl)-7-methylthiazolo[5,4-b]pyridin-5-yl)oxy)ethyl)benzenesulfonamide], the IC50 amounted to 2.5 nM.
`COc1cnc2c(-c3nc4cc(F)c(O[C@@H](C)[C@@H](C)OC(=O)Nc5ccncc5)cc4s3)cc(Cl)cc2c1` [Example 790, (2R,3S)-3-((2-(6-chloro-3-methoxyquinolin-8-yl)-5-fluorobenzo[d]thiazol-6-yl)oxy)butan-2-yl pyridin-4-ylcarbamate]: the half-inhibitory concentration (IC50) is 4.4 nM.
Consider `Cc1cc(-c2cc3c(o2)CCCC3NC(=O)OC(C)(C)C)c2ncc(OC(F)F)nc2c1` (centres unmarked) [Example 25, tert-butyl (2-(2-(difluoromethoxy)-7-methylquinoxalin-5-yl)-4,5,6,7-tetrahydrobenzofuran-4-yl)carbamate], for which the IC50 amounted to 130 nM.
The figure for `COc1cnc2c(-c3nc4cc(F)c(O[C@@H](C)[C@@H](C)OC(=O)Nc5cncc(C#N)c5)cc4s3)cc(C)cc2n1` [Example 421, (2R,3S)-3-((5-fluoro-2-(2-methoxy-7-methylquinoxalin-5-yl)benzo[d]thiazol-6-yl)oxy)butan-2-yl (5-cyanopyridin-3-yl)carbamate] is 1.8 nM; for `COc1cnc2c(-c3nc4c(C)cc(OCCOC(=O)Nc5cncc(C#N)c5)cc4s3)cc(C)cc2n1` [Example 116, 2-(2-(2-methoxy-7-methylquinoxalin-5-yl)-4-methylbenzo[d]thiazol-6-yloxy)ethyl 5-cyanopyridin-3-ylcarbamate] it is 1.4 nM.
On to `COc1cnc2c(-c3nc4cc(F)c(O[C@@H](C)[C@@H](C)OC(=O)Nc5cnc(CO)nc5)cc4s3)cc(C)cc2n1` [Example 502, (2R,3S)-3-((5-fluoro-2-(2-methoxy-7-methylquinoxalin-5-yl)benzo[d]thiazol-6-yl)oxy)butan-2-yl (2-(hydroxymethyl)pyrimidin-5-yl)carbamate], for which the IC50 worked out at 1.7 nM.
For the compound `COc1cnc2c(-c3nc4cc(F)c(O[C@@H](C)[C@@H](C)OC(=O)Nc5cnc(C)nc5)cc4s3)cc(Cl)cc2n1` [Example 824, (2R,3S)-3-((2-(7-chloro-2-methoxyquinoxalin-5-yl)-5-fluorobenzo[d]thiazol-6-yl)oxy)butan-2-yl (2-methylpyrimidin-5-yl)carbamate], the IC50 worked out at 1.5 nM.
For `COc1cnc2c(-c3nc4c(CO)c(C)c(OC)cc4s3)cc(C)cc2n1` [Example 301], the IC50 stood at 15 nM.
As for `COc1cnc2c(-c3nc4cc(F)c(OC(C)C)cc4s3)cc(CO)cc2n1` [Example 248, (8-(5-fluoro-6-isopropoxybenzo[d]thiazol-2-yl)-3-methoxyquinoxalin-6-yl)methanol], the figure is 19 nM; as for `COc1cnc2c(-c3nc4cc(F)c(O[C@@H](C)[C@@H](C)OC(=O)Nc5cnc(C(F)(F)F)nc5)cc4s3)cc(C)cc2n1` [Example 415, (2R,3S)-3-((5-fluoro-2-(2-methoxy-7-methylquinoxalin-5-yl)benzo[d]thiazol-6-yl)oxy)butan-2-yl (2-(trifluoromethyl)pyrimidin-5-yl)carbamate], 3.1 nM.
The figure for `COc1cnc2c(-c3nc4cc(F)c(OC[C@@H](C)OC(=O)Nc5ccc(C(=O)NC[C@@H](C)O)nc5)nc4s3)cc(C)cc2n1` [Example 747, (R)-1-((6-fluoro-2-(2-methoxy-7-methylquinoxalin-5-yl)thiazolo[5,4-b]pyridin-5-yl)oxy) propan-2-yl (6-(((R)-2-hydroxypropyl)carbamoyl)pyridin-3-yl)carbamate] is 2.4 nM; for `COc1cnc2c(-c3nc4cc(F)c(OC[C@@H](C)OC(=O)Nc5ccc(F)nc5)cc4s3)cc(C)cc2n1` [Example 348, (R)-1-((5-fluoro-2-(2-methoxy-7-methylquinoxalin-5-yl)benzo[d]thiazol-6-yl)oxy)propan-2-yl (6-fluoropyridin-3-yl)carbamate] it is 4.4 nM.
Take `Cc1cc(-c2nc3c(C)cc(OCCNS(=O)(=O)c4ccc(F)c(F)c4)cc3s2)c2ncc(OC(F)F)nc2c1` [Example 85, N-(2-(2-(2-(difluoromethoxy)-7-methylquinoxalin-5-yl)-4-methylbenzo[d]thiazol-6-yloxy)ethyl)-3,4-difluorobenzenesulfonamide]: the IC50 stood at 8.5 nM.
In the case of `COc1cnc2c(-c3cc4cc(OCCOC(=O)Nc5ccnc(C)c5)cc(Cl)c4o3)cc(C)cc2n1` [Example 38, 2-((7-chloro-2-(2-methoxy-7-methylquinoxalin-5-yl)benzofuran-5-yl)oxy)ethyl (2-methylpyridin-4-yl)carbamate], the IC50 is 2.1 nM.
As for `COc1cnc2c(-c3nc4cc(F)c(O[C@@H](C)[C@@H](C)OC(=O)Nc5ccc(C(C)O)nc5)nc4s3)cc(C)cc2n1` (single isomer, unassigned) [Example 767], the IC50 worked out at 3.4 nM.
As for `COc1cnc2c(-c3nc4cc(F)c(OC[C@@H](C)OC(=O)Nc5ccc(C(=O)NCC(C)(C)O)nc5)cc4s3)cc(C)cc2n1` [Example 448, (R)-1-((5-fluoro-2-(2-methoxy-7-methylquinoxalin-5-yl)benzo[d]thiazol-6-yl)oxy)propan-2-yl (6-((2-hydroxy-2-methylpropyl)carbamoyl)pyridin-3-yl)carbamate], the figure is 2.1 nM.
The figure for `C=Cc1cc(-c2nc3c(C)cc(OCCNS(=O)(=O)c4ccc(F)cc4)cc3s2)c2ncc(COC)nc2c1` [Example 234, 4-fluoro-N-(2-((2-(2-(methoxymethyl)-7-vinylquinoxalin-5-yl)-4-methylbenzo[d]thiazol-6-yl)oxy)ethyl)benzenesulfonamide] is 1.4 nM.
The figure for `COc1cnc2c(-c3nc4cc(F)c(O[C@@H](C)[C@@H](C)OC(=O)Nc5cnc(C)nc5)cc4s3)cc(F)cc2c1` [Example 772, (2R,3S)-3-((5-fluoro-2-(6-fluoro-3-methoxyquinolin-8-yl)benzo[d]thiazol-6-yl)oxy)butan-2-yl (2-methylpyrimidin-5-yl)carbamate] is 1.5 nM; for `COCc1cnc2c(-c3cc4cc(OC)c(F)c(Cl)c4o3)cc(C)cc2n1` [Example 121, 5-(7-chloro-6-fluoro-5-methoxybenzofuran-2-yl)-2-(methoxymethyl)-7-methylquinoxaline] it is 0.7 nM; for `COc1cnc2c(-c3nc4c(Cl)c(F)c(O[C@@H](C)[C@@H](C)OC(=O)Nc5cnc(OC[C@@H](C)O)nc5)cc4s3)cc(Cl)cc2c1` [Example 796, (2R,3S)-3-((4-chloro-2-(6-chloro-3-methoxyquinolin-8-yl)-5-fluorobenzo[d]thiazol-6-yl)oxy)butan-2-yl (2-((R)-2-hydroxypropoxy)pyrimidin-5-yl)carbamate] it is 1.3 nM.
For `COc1cnc2c(-c3nc4c(Cl)c(F)c(OC[C@@H](C)OC(=O)Nc5ccc(C(F)(F)F)nc5)cc4s3)cc(C)cc2n1` [Example 374, (R)-1-((4-chloro-5-fluoro-2-(2-methoxy-7-methylquinoxalin-5-yl)benzo[d]thiazol-6-yl)oxy)propan-2-yl (6-(trifluoromethyl)pyridin-3-yl)carbamate], the IC50 is 110 nM.
For the compound `COc1cnc2c(-c3nc4cc(F)c(O[C@@H](C)[C@@H](C)OC(=O)Nc5ccnc(CC(C)(C)O)c5)cc4s3)cc(C)cc2n1` [Example 561, (2R,3S)-3-((5-fluoro-2-(2-methoxy-7-methylquinoxalin-5-yl)benzo[d]thiazol-6-yl)oxy)butan-2-yl (2-(2-hydroxy-2-methylpropyl)pyridin-4-yl)carbamate], the IC50 came to 53 nM.
With `COCc1cnc2c(-c3nc4ccc(Cl)cc4s3)cc(C)cc2n1` [Example 274, 6-chloro-2-(2-(methoxymethyl)-7-methylquinoxalin-5-yl)benzo[d]thiazole], the IC50 came to 5.7 nM.
`COc1cccc2sc(-c3cc(C)cc4nc(OC(F)F)cnc34)nc12` [Example 51, 2-(2-(difluoromethoxy)-7-methylquinoxalin-5-yl)-4-methoxybenzo[d]thiazole]: the IC50 was determined as 180 nM.
Consider `COc1cnc2c(-c3nc4ccc(OC)nc4s3)cc(C)cc2n1` [Example 150, 5-methoxy-2-(2-methoxy-7-methylquinoxalin-5-yl)thiazolo[5,4-b]pyridine], for which the IC50 worked out at 94 nM.
`COc1cnc2c(-c3nc4cc(F)c(O[C@@H](C)[C@@H](C)OC(=O)Nc5ccc(C(=O)NCC(C)(C)O)nc5)cc4s3)cc(C)cc2n1` [Example 460, (2R,3S)-3-((5-fluoro-2-(2-methoxy-7-methylquinoxalin-5-yl)benzo[d]thiazol-6-yl)oxy)butan-2-yl (6-((2-hydroxy-2-methylpropyl)carbamoyl)pyridin-3-yl)carbamate]: the IC50 worked out at 0.9 nM.
The figure for `COCc1cnc2c(-c3nc4c(OC)cc(F)cc4s3)cc(C)cc2n1` [Example 270, 6-fluoro-4-methoxy-2-(2-(methoxymethyl)-7-methylquinoxalin-5-yl)benzo[d]thiazole] is 17 nM.
